Data on 61 compounds can be found in a melting point compilation (Tetko et al.; mined from patent text by program, amines drawn as free bases though some values may be those of a salt).

Usually melting point stands for the temperature of the solid-liquid transition.

On to `O=C(c1ccccc1)N1CC(O)C(O)C(O)C1CO` (stereo unspecified), for which the melting point was determined as 159 °C. In the case of `Cc1ccccc1-c1nccc2c(CC#N)cccc12`, the melting point came out at 120 °C.

Compound `O=[N+]([O-])c1cc(Cl)c(CO)c(Cl)c1` came in with a melting point of 111 to 114 °C. For the compound `CC(=O)Nc1nsnc1-c1c(Cl)cccc1Cl`, the melting point lay in the range of 180 to 185 °C. Regarding `CC(C)c1ccc(N(CC(=O)N2CCOCC2)C(=O)C2CCCc3ccccc32)cc1` (stereo unspecified), the melting point came to 180 °C. Compound `Cc1sc2c(Br)c3ccccc3c(-c3cc(Br)c(O)c([N+](=O)[O-])c3)c2c1C` yielded a melting point of 129 to 130 °C. `CCC(=O)Nc1nnc2c3c(c(N4CCCCC4)nn12)CCCC3` yielded a melting point of 173 to 174 °C. With `CC(C)(C)OC(=O)N1CCC(c2ccc(N3C[C@H](CNC(=O)C(Cl)Cl)OC3=O)cc2F)CC1` the figure was 168 to 170 °C; with `CCCc1c2c(c(N)c3c(=O)cc(C(=O)OCC)oc13)CC(C(=O)OCC)CC2` (stereo unspecified), 102 to 103 °C; with `Nc1ncc(-c2ccccc2)c(N)n1`, 162 to 164 °C.

In the case of `COC(=O)c1cc(OC)c(N=Nc2ccccc2)c(OC)c1`, the melting point is 115 to 116 °C. For `CS(=O)(=O)c1cccc(C(Cc2ccc(F)cc2)C(=O)Nc2nc3ccccc3o2)c1` (stereo unspecified) the value was 99 to 100 °C; for `OCCOCc1nn(Cc2ccccc2)c2ccccc12`, 67 to 69 °C; for `CSc1ccc(-c2c(NN)nc(Cl)nc2-c2ccccc2)cc1`, 272 to 274 °C. With `Cc1c(C2=CCC(Cc3ccccc3)(N(C)C)CC2)[nH]c2ccc(OC(F)(F)F)cc12` (stereo unspecified) the figure was 74 to 75 °C. As to `CCCCOCCOc1ccc(-c2ccc(N3CC(C)C(C)C3)c(C=C(C)C(=O)OCC)c2)cc1` (stereo unspecified), the melting point was 67 to 69 °C.

In turn, `O=C(O)CCc1oc(SCc2ccccn2)nc1-c1ccc(Cl)cc1` displayed a melting point of 125 to 126 °C. For `COc1cccc(C(=O)N2CCc3cc(S(=O)(=O)N4CCN(c5cccc(Cl)c5)CC4)ccc32)c1` the value was 155 to 156 °C. For `Cc1cc([C@H]2[C@H](C(=O)Nc3ccc(F)c(F)c3)C2(C)C)ccc1S(N)(=O)=O` (relative stereo) the value was 195 to 198 °C; for `COc1cc(NC(N)=O)c2c(c1)OC(C)C2` (stereo unspecified), 204 °C; for `CN(Cc1ccccc1)Cc1ccc(N)cc1`, 48 to 50 °C. On to `CCOC(=O)C(=Cc1cccc([N+](=O)[O-])c1)C(C)=O`, for which the melting point fell in the range of 103 to 106 °C. The compound `CCOC(=O)CNc1c(C)cccc1[N+](=O)[O-]` showed a melting point of 49 to 52 °C. With `CCOCC(=NO)C(C)(C)NOC(CNC(C)(C)C(C)=NO)Cn1ccnc1[N+](=O)[O-]` (stereo unspecified) the figure was 129 to 130 °C; with `C1=CCC2=C3C(=NC2=C1)SCCC3CNCc1ccccc1` (stereo unspecified), 118 °C; with `Cc1c(C2=CCC(Cc3ccccc3)(N(C)C)CC2)[nH]c2ccc(F)cc12` (stereo unspecified), 62 to 65 °C. For `CC(C)(C)Sc1c(CC(C)(C)C(=O)O)n(Cc2ccc(Cl)cc2)c2ccc(OCc3ccc4ccccc4n3)cc12` the value was 208 °C; for `Cc1oc(-c2ccccc2)nc1C(O)COc1ccc(CCCC2OC(=O)NC2=O)cc1` (stereo unspecified), 146 to 147 °C; for `CN(C)C=Cc1nc2ccc(F)cc2c(=O)n1-c1cccnc1Cl`, 197 to 200 °C. Take `Cc1ccc(F)cc1C(=O)Nc1ccc(C(=O)N2Cc3cccn3Cc3ccccc32)c(Cl)c1`: the melting point was in the range of 191 to 195 °C.

Regarding `CC(=O)Nc1cccc(-c2nc3sccn3c2-c2ccnc(N[C@@H]3CCCN(S(=O)(=O)c4ccc(Cl)cc4)C3)n2)c1`, the melting point lay in the range of 169 to 174 °C. `COc1cccc(C(=O)N(C(=O)OCI)N(C(=O)c2cc(C)cc(C)c2)C(C)(C)C)c1C` yielded a melting point of 70 to 72 °C. `CCN(CC)CCOC(=O)CCc1cc(S(C)(=O)=O)cc(-c2nc(=O)c3ccc(Cl)cc3s2)n1` showed a melting point of 150 to 152 °C. With `C[Si](C)(C)CCCCCC1=C(O)C(=O)c2ccccc2C1=O` the figure was 73 to 75 °C; with `COc1ccc(-c2nc(CN3CCOCC3)nc3cc(OC)c(OC)cc23)cc1OC`, 148 to 150 °C; with `Fc1cnc(Nc2nc3c(s2)CCN(CCCN2CCC(F)(F)CC2)c2n[nH]cc2-3)nc1`, 238 to 240 °C.

`COc1nc(C)cnc1NS(=O)(=O)c1cccnc1-c1ccc(CC(C)CO)cc1` (stereo unspecified): the melting point was 118 to 119 °C. In the case of `OCC1OC(n2cnc3c(NNC4CCOc5ccccc54)ncnc32)C(O)C1O` (stereo unspecified), the melting point lay in the range of 125 to 130 °C.

Consider `CCN(C(=O)N(C)C)c1nnc(S(=O)(=O)N(C)C)s1`, for which the melting point lay in the range of 75 to 77 °C. Take `CC1(C)CC(=O)C2=C(C1)NC1=C(C(=O)CC(C)(C)C1)C2c1cccc(-c2ccccc2)c1`: the melting point lay within 227 to 229 °C. With `CC(C)(C)OC(=O)Nn1ccc2ccccc21` the figure was 112 to 116 °C. In turn, `O=C1CCN(C(=O)C(Cc2ccccc2)NC(=O)c2cc3cc(Cl)ccc3[nH]2)CC1` (stereo unspecified) displayed a melting point of 258 to 261 °C. For `Cc1ccc(C(=O)Nc2c[nH]nc2C(=O)NCCC#N)cc1` the value was 207 to 209 °C; for `O=C(O)Cc1ccc(NC(=O)C(Cc2ccccc2)NS(=O)(=O)c2ccc(Br)cc2)cc1` (racemic), 184 to 185 °C; for `Fc1ccc(COc2ncc(F)c(NCOCc3ccccc3)n2)cc1`, 64 to 66 °C.

Turning to `FC(F)(F)c1cc(Cl)c2cc(Cl)cc(Cl)c2n1`, the melting point lay in the range of 74 to 76 °C. For `O[C@@H]1CN(Cc2ccccc2)C[C@H]1Oc1ccc(OCc2ccccc2)cc1` (relative stereo) the value was 98 to 100 °C; for `COC(=O)/C=C/c1nc2ccc(Cl)cc2c(=O)o1`, 117 to 118 °C; for `O=C(c1n[nH]c2ccccc12)N1CCCCC1`, 201 to 203 °C.

As for `CC(C)CC(CO)NC(=O)c1ccccc1SSc1ccccc1C(=O)NC(CO)CC(C)C` (stereo unspecified), the melting point fell in the range of 195 to 196 °C. `COC(=O)c1cc2nc(C)oc2cc1C(=O)OC` had a melting point of 121 to 124 °C. With `CCCCCC(=O)CCCC(=O)O` the figure was 54 to 55 °C; with `CC(CCC(=O)C(C)(C)OO)C1CCC2C3CC=C4CC(O)CCC4(C)C3CCC12C` (stereo unspecified), 146 to 147 °C. For `COc1cccc(-c2cc(F)cc3c2OC(CN)C3)c1OC` (stereo unspecified) the value was 166 to 167 °C. For `Cc1nc2cc(S(=O)(=O)n3c(COC(C)(C)C(=O)O)cc4cc(Cl)ccc43)ccc2s1` the value was 134 to 136 °C; for `O=c1c(Cl)c(C(F)(F)F)nc(Nc2cc(C(F)(F)F)ccc2C(F)(F)F)n1C1CCCCC1`, 181 to 183 °C. `CCC1(CC)C(=O)N(CC(O)Cc2cc(C(C)C)c(O)c(C(C)C)c2)C(=O)N(CC(O)Cc2cc(C(C)C)c(O)c(C(C)C)c2)C1=O` (stereo unspecified) yielded a melting point of 126 to 127 °C. `CC(C)(C(=O)NO)N(CCC(=O)O)S(=O)(=O)c1ccc(Oc2ccc(F)cc2)cc1` yielded a melting point of 162 °C.

`COC=C(C(=O)OC)N(C)c1cc(-c2cccc(OC)c2)ncn1` returned a melting point of 87 to 90 °C.

As for `CCOC(=O)/C=C/c1cccc(C2CCCC2)c1OCCc1ccccc1`, the melting point was in the range of 78 to 80 °C. For `CN1C2CCC1CN(c1ccc(C#Cc3ccc(N)cc3)nn1)C2` the value was 204 to 210 °C.
